{"source": "the kinase profiling compilation of Christmann-Franck et al. (2016)", "experiment_in_all_cases": "KINOMEscan competition binding", "conditions_in_all_cases": "compound 10.0 µM", "key": {"MERTK (human)": {"target": "MERTK (human) (UniProt Q12866)"}, "SRPK1 (human)": {"target": "SRPK1 (human) (UniProt Q96SB4)"}, "PIP5K1A (human)": {"target": "PIP5K1A (human) (UniProt Q99755)", "sequence (Q99755 whole entry, looked up)": "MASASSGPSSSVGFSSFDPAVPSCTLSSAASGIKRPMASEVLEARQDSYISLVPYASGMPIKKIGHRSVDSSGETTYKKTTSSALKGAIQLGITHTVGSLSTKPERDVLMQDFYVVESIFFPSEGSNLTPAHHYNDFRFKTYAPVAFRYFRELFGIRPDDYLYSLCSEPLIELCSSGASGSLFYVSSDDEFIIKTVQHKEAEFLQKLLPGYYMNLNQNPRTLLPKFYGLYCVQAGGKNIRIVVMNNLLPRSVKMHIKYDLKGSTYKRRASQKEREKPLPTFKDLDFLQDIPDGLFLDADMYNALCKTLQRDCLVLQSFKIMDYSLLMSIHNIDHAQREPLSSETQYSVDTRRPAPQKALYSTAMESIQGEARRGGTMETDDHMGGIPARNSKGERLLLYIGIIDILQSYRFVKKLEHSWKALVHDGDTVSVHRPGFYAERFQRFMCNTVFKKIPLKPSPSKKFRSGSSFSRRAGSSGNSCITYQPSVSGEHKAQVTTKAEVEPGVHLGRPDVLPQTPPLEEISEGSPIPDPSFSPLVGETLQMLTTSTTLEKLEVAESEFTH"}, "[1]": {"tested_on": "RET (human), P07949 [M918T]"}, "[2]": {"tested_on": "RET (human), P07949 [V804L]"}, "STK33 (human)": {"target": "STK33 (human) (UniProt Q9BYT3)"}, "PLK1 (human)": {"target": "PLK1 (human) (UniProt P53350)", "sequence (P53350 whole entry, looked up)": "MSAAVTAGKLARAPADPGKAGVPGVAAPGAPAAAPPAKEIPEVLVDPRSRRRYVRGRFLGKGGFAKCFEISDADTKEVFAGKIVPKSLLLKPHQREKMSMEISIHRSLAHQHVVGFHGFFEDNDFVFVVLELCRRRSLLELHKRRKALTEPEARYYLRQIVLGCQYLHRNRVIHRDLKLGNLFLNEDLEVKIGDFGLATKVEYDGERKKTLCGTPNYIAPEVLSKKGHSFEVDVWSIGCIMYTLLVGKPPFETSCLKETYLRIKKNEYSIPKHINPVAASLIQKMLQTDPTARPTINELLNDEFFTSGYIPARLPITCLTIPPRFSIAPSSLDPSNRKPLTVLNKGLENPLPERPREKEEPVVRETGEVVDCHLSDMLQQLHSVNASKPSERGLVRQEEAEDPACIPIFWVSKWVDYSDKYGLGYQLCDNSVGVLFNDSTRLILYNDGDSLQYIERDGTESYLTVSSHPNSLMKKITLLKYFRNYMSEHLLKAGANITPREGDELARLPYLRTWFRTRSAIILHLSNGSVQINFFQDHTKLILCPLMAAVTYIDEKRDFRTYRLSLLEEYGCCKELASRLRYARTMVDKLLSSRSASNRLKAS"}, "BRSK2 (human)": {"target": "BRSK2 (human) (UniProt Q8IWQ3)"}, "PRKCD (human)": {"target": "PRKCD (human) (UniProt Q05655)"}, "FLT4 (human)": {"target": "FLT4 (human) (UniProt P35916)"}, "MARK4 (human)": {"target": "MARK4 (human) (UniProt Q96L34)"}, "STK16 (human)": {"target": "STK16 (human) (UniProt O75716)"}, "FLT3 (human)": {"target": "FLT3 (human) (UniProt P36888)"}, "[3]": {"tested_on": "ABL1 (human), P00519 [T315I]"}, "RPS6KA1 KD2 (human)": {"target": "RPS6KA1 KD2 (human) (UniProt Q15418)"}, "MKNK2 (human)": {"target": "MKNK2 (human) (UniProt Q9HBH9)"}, "PRKD1 (human)": {"target": "PRKD1 (human) (UniProt Q15139)"}, "TNK1 (human)": {"target": "TNK1 (human) (UniProt Q13470)"}, "PDGFRB (human)": {"target": "PDGFRB (human) (UniProt P09619)"}, "CAMKK2 (human)": {"target": "CAMKK2 (human) (UniProt Q96RR4)"}, "NUAK2 (human)": {"target": "NUAK2 (human) (UniProt Q9H093)"}, "[4]": {"tested_on": "FLT3 (human), P36888 [ITD]"}, "ACVR1 (human)": {"target": "ACVR1 (human) (UniProt Q04771)"}, "KIT (human)": {"target": "KIT (human) (UniProt P10721)"}, "DCLK1 (human)": {"target": "DCLK1 (human) (UniProt O15075)", "sequence (O15075 whole entry, looked up)": "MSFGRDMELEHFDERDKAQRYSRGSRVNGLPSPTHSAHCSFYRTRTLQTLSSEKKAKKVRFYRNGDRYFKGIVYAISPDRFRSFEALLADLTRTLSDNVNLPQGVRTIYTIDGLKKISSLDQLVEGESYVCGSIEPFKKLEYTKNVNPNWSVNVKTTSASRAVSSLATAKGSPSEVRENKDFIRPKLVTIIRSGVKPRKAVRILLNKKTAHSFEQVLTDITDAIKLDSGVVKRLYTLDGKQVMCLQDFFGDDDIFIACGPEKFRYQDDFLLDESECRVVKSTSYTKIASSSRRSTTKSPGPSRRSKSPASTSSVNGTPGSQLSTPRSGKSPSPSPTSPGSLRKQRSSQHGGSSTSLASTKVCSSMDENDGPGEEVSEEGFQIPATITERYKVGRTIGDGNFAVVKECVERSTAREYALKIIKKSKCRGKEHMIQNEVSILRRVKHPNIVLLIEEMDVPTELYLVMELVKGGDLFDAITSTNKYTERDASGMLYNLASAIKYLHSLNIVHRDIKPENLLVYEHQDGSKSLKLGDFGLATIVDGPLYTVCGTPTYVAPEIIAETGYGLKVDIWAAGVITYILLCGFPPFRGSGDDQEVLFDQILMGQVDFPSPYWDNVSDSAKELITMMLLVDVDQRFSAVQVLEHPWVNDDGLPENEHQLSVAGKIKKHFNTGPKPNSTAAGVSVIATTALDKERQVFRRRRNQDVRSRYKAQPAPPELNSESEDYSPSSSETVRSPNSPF"}, "[5]": {"tested_on": "KIT (human), P10721 [V559D/V654A]"}, "CSF1R (human)": {"target": "CSF1R (human) (UniProt P07333)"}, "PLK4 (human)": {"target": "PLK4 (human) (UniProt O00444)"}, "PIK3CA (human)": {"target": "PIK3CA (human) (UniProt P42336)"}, "RPS6KA6 KD2 (human)": {"target": "RPS6KA6 KD2 (human) (UniProt Q9UK32)"}, "[6]": {"target": "TYK2 JH1 catalytic (human) (UniProt P29597)"}, "[7]": {"tested_on": "KIT (human), P10721 [V559D]"}, "TNK2 (human)": {"target": "TNK2 (human) (UniProt Q07912)"}, "TAOK1 (human)": {"target": "TAOK1 (human) (UniProt Q7L7X3)"}, "BMPR1B (human)": {"target": "BMPR1B (human) (UniProt O00238)"}, "PIK3CG (human)": {"target": "PIK3CG (human) (UniProt P48736)"}, "MAP3K3 (human)": {"target": "MAP3K3 (human) (UniProt Q99759)"}, "ROS1 (human)": {"target": "ROS1 (human) (UniProt P08922)"}, "PIK3CD (human)": {"target": "PIK3CD (human) (UniProt O00329)"}, "CLK2 (human)": {"target": "CLK2 (human) (UniProt P49760)"}, "AURKB (human)": {"target": "AURKB (human) (UniProt Q96GD4)"}, "AURKA (human)": {"target": "AURKA (human) (UniProt O14965)"}, "PRKD3 (human)": {"target": "PRKD3 (human) (UniProt O94806)"}, "MAPK7 (human)": {"target": "MAPK7 (human) (UniProt Q13164)", "sequence (Q13164 whole entry, looked up)": "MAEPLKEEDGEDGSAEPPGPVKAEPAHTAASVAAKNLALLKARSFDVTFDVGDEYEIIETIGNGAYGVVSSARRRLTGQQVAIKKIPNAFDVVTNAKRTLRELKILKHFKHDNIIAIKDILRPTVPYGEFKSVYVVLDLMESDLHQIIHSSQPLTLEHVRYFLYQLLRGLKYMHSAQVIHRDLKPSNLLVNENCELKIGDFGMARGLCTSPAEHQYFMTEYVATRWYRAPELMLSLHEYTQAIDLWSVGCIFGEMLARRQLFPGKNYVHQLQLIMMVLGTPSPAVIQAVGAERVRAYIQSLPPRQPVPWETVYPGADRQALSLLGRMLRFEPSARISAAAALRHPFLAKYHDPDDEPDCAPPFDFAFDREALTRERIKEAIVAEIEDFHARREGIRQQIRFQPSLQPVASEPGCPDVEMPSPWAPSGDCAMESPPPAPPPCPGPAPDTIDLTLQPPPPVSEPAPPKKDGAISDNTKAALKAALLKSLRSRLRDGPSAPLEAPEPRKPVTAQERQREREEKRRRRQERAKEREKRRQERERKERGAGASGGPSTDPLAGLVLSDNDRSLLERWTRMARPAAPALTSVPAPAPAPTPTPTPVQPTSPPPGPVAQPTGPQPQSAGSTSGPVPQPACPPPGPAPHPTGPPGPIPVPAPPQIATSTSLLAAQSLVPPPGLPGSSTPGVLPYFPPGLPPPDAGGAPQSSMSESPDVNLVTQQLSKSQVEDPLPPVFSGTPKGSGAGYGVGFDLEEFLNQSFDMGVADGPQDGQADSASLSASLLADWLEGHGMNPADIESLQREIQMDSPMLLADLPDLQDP"}, "NUAK1 (human)": {"target": "NUAK1 (human) (UniProt O60285)"}, "PRKAA1 (human)": {"target": "PRKAA1 (human) (UniProt Q13131)"}, "[8]": {"tested_on": "FLT3 (human), P36888 [K663Q]"}, "FGFR4 (human)": {"target": "FGFR4 (human) (UniProt P22455)"}, "GAK (human)": {"target": "GAK (human) (UniProt O14976)", "sequence (O14976 whole entry, looked up)": "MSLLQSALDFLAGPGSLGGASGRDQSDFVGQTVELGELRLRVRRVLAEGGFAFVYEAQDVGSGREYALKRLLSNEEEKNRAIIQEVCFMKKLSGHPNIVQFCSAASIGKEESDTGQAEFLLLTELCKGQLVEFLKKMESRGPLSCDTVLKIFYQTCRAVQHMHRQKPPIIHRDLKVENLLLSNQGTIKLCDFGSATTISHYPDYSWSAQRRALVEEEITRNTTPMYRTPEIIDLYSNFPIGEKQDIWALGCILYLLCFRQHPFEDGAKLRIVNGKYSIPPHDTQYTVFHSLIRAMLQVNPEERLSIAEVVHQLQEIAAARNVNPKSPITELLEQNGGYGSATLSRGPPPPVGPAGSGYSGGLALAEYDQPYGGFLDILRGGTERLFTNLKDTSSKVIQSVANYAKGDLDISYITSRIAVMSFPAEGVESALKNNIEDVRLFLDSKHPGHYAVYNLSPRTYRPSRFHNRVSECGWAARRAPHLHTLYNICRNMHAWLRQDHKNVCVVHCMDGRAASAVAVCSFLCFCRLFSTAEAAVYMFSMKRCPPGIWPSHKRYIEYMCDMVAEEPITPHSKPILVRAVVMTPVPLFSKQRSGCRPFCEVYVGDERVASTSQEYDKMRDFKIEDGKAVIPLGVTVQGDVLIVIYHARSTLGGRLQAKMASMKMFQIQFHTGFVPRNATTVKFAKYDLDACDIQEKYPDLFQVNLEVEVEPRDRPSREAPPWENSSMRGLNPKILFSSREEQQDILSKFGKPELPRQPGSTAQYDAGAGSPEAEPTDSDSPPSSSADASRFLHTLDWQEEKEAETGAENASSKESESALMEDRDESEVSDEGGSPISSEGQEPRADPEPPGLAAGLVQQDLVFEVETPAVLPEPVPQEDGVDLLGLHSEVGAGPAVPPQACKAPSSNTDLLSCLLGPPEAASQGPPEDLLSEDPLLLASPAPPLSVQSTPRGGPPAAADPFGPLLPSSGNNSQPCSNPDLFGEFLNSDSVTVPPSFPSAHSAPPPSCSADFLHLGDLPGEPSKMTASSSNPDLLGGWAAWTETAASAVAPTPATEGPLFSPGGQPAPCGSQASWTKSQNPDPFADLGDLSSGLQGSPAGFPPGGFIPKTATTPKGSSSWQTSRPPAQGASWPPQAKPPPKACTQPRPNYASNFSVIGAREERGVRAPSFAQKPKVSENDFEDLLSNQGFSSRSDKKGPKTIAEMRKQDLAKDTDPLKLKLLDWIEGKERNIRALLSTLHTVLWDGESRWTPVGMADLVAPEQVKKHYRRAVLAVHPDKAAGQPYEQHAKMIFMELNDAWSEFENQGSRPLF"}, "DCLK2 (human)": {"target": "DCLK2 (human) (UniProt Q8N568)", "sequence (Q8N568 whole entry, looked up)": "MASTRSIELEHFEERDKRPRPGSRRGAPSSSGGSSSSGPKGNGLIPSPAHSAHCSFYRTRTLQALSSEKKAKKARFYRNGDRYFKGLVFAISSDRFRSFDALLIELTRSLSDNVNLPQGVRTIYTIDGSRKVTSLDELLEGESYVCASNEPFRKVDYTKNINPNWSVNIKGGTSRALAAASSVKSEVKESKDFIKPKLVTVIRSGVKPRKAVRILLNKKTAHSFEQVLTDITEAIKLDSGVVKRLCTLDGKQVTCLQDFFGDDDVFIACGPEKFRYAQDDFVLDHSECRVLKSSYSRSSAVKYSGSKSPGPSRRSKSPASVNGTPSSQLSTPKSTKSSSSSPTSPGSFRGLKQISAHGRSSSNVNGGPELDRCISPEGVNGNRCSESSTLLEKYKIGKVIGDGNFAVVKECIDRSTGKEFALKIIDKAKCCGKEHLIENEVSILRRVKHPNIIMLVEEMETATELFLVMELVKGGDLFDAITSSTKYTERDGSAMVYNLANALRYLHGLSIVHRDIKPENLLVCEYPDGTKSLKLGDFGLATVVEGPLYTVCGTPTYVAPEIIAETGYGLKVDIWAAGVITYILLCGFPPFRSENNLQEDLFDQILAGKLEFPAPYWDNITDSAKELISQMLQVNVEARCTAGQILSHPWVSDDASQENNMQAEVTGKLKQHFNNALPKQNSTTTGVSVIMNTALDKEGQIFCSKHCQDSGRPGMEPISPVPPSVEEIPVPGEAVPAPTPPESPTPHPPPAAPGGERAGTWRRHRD"}, "TAOK3 (human)": {"target": "TAOK3 (human) (UniProt Q9H2K8)"}, "PDGFRA (human)": {"target": "PDGFRA (human) (UniProt P16234)"}, "AURKC (human)": {"target": "AURKC (human) (UniProt Q9UQB9)"}, "TTK (human)": {"target": "TTK (human) (UniProt P33981)"}, "PLK3 (human)": {"target": "PLK3 (human) (UniProt Q9H4B4)"}, "PRKCQ (human)": {"target": "PRKCQ (human) (UniProt Q04759)"}, "NLK (human)": {"target": "NLK (human) (UniProt Q9UBE8)"}, "MYLK (human)": {"target": "MYLK (human) (UniProt Q15746)"}, "PKN1 (human)": {"target": "PKN1 (human) (UniProt Q16512)"}}, "data": [{"smiles": "COc1cc(C(=O)NC2CCN(C)CC2)ccc1Nc1ncc2c(n1)N(C1CCCC1)CCC(=O)N2C(C)C", "values": [{"measurement": "kinase still bound, per cent of control", "setting": "MERTK (human)", "result": 34, "unit": "%"}, {"measurement": "kinase still bound, per cent of control", "setting": "SRPK1 (human)", "result": 0, "unit": "%"}, {"measurement": "kinase still bound, per cent of control", "setting": "PIP5K1A (human)", "result": 6.4, "unit": "%"}, {"measurement": "kinase still bound, per cent of control", "setting": "[1]", "result": 0, "unit": "%"}, {"measurement": "kinase still bound, per cent of control", "setting": "[2]", "result": 0, "unit": "%"}, {"measurement": "kinase still bound, per cent of control", "setting": "STK33 (human)", "result": 32, "unit": "%"}, {"measurement": "kinase still bound, per cent of control", "setting": "PLK1 (human)", "result": 17, "unit": "%"}, {"measurement": "kinase still bound, per cent of control", "setting": "BRSK2 (human)", "result": 0, "unit": "%"}, {"measurement": "kinase still bound, per cent of control", "setting": "PRKCD (human)", "result": 0, "unit": "%"}, {"measurement": "kinase still bound, per cent of control", "setting": "FLT4 (human)", "result": 0, "unit": "%"}, {"measurement": "kinase still bound, per cent of control", "setting": "MARK4 (human)", "result": 0, "unit": "%"}]}, {"smiles": "CN1C(=O)c2ccccc2N(C)c2nc(Nc3ccc(N4CCC(O)CC4)cn3)ncc21", "values": [{"measurement": "kinase still bound, per cent of control", "setting": "STK16 (human)", "result": 31, "unit": "%"}, {"measurement": "kinase still bound, per cent of control", "setting": "FLT3 (human)", "result": 8.1, "unit": "%"}, {"measurement": "kinase still bound, per cent of control", "setting": "[3]", "result": 19, "unit": "%"}, {"measurement": "kinase still bound, per cent of control", "setting": "RPS6KA1 KD2 (human)", "result": 34, "unit": "%"}, {"measurement": "kinase still bound, per cent of control", "setting": "MKNK2 (human)", "result": 1.6, "unit": "%"}, {"measurement": "kinase still bound, per cent of control", "setting": "PRKD1 (human)", "result": 21, "unit": "%"}, {"measurement": "kinase still bound, per cent of control", "setting": "TNK1 (human)", "result": 0.6, "unit": "%"}, {"measurement": "kinase still bound, per cent of control", "setting": "PDGFRB (human)", "result": 2.6, "unit": "%"}, {"measurement": "kinase still bound, per cent of control", "setting": "CAMKK2 (human)", "result": 31, "unit": "%"}, {"measurement": "kinase still bound, per cent of control", "setting": "PIP5K1A (human)", "result": 26, "unit": "%"}, {"measurement": "kinase still bound, per cent of control", "setting": "NUAK2 (human)", "result": 22, "unit": "%"}, {"measurement": "kinase still bound, per cent of control", "setting": "[4]", "result": 33, "unit": "%"}, {"measurement": "kinase still bound, per cent of control", "setting": "ACVR1 (human)", "result": 29, "unit": "%"}, {"measurement": "kinase still bound, per cent of control", "setting": "KIT (human)", "result": 3.1, "unit": "%"}, {"measurement": "kinase still bound, per cent of control", "setting": "DCLK1 (human)", "result": 0.3, "unit": "%"}, {"measurement": "kinase still bound, per cent of control", "setting": "[5]", "result": 26, "unit": "%"}, {"measurement": "kinase still bound, per cent of control", "setting": "CSF1R (human)", "result": 14, "unit": "%"}, {"measurement": "kinase still bound, per cent of control", "setting": "PLK4 (human)", "result": 7.2, "unit": "%"}, {"measurement": "kinase still bound, per cent of control", "setting": "[2]", "result": 34, "unit": "%"}, {"measurement": "kinase still bound, per cent of control", "setting": "PIK3CA (human)", "result": 33, "unit": "%"}, {"measurement": "kinase still bound, per cent of control", "setting": "PLK1 (human)", "result": 24, "unit": "%"}, {"measurement": "kinase still bound, per cent of control", "setting": "RPS6KA6 KD2 (human)", "result": 30, "unit": "%"}, {"measurement": "kinase still bound, per cent of control", "setting": "[6]", "result": 18, "unit": "%"}, {"measurement": "kinase still bound, per cent of control", "setting": "[7]", "result": 1.8, "unit": "%"}, {"measurement": "kinase still bound, per cent of control", "setting": "TNK2 (human)", "result": 31, "unit": "%"}, {"measurement": "kinase still bound, per cent of control", "setting": "TAOK1 (human)", "result": 1, "unit": "%"}, {"measurement": "kinase still bound, per cent of control", "setting": "BMPR1B (human)", "result": 19, "unit": "%"}, {"measurement": "kinase still bound, per cent of control", "setting": "PIK3CG (human)", "result": 2.2, "unit": "%"}, {"measurement": "kinase still bound, per cent of control", "setting": "MAP3K3 (human)", "result": 2.2, "unit": "%"}, {"measurement": "kinase still bound, per cent of control", "setting": "ROS1 (human)", "result": 28, "unit": "%"}, {"measurement": "kinase still bound, per cent of control", "setting": "PIK3CD (human)", "result": 33, "unit": "%"}, {"measurement": "kinase still bound, per cent of control", "setting": "CLK2 (human)", "result": 32, "unit": "%"}, {"measurement": "kinase still bound, per cent of control", "setting": "AURKB (human)", "result": 25, "unit": "%"}, {"measurement": "kinase still bound, per cent of control", "setting": "AURKA (human)", "result": 8.2, "unit": "%"}, {"measurement": "kinase still bound, per cent of control", "setting": "PRKD3 (human)", "result": 20, "unit": "%"}, {"measurement": "kinase still bound, per cent of control", "setting": "MAPK7 (human)", "result": 0, "unit": "%"}, {"measurement": "kinase still bound, per cent of control", "setting": "NUAK1 (human)", "result": 30, "unit": "%"}, {"measurement": "kinase still bound, per cent of control", "setting": "PRKAA1 (human)", "result": 23, "unit": "%"}, {"measurement": "kinase still bound, per cent of control", "setting": "[8]", "result": 12, "unit": "%"}, {"measurement": "kinase still bound, per cent of control", "setting": "FGFR4 (human)", "result": 25, "unit": "%"}, {"measurement": "kinase still bound, per cent of control", "setting": "GAK (human)", "result": 33, "unit": "%"}, {"measurement": "kinase still bound, per cent of control", "setting": "DCLK2 (human)", "result": 0.5, "unit": "%"}, {"measurement": "kinase still bound, per cent of control", "setting": "TAOK3 (human)", "result": 0.4, "unit": "%"}, {"measurement": "kinase still bound, per cent of control", "setting": "PDGFRA (human)", "result": 8, "unit": "%"}, {"measurement": "kinase still bound, per cent of control", "setting": "AURKC (human)", "result": 3.7, "unit": "%"}]}, {"smiles": "COc1cc(C(N)=O)ccc1Nc1ncc2c(n1)N(C1CCCC1)[C@@H]1CCC[C@@H]1C(=O)N2C", "values": [{"measurement": "kinase still bound, per cent of control", "setting": "TTK (human)", "result": 13, "unit": "%"}, {"measurement": "kinase still bound, per cent of control", "setting": "PLK3 (human)", "result": 1.7, "unit": "%"}, {"measurement": "kinase still bound, per cent of control", "setting": "PRKCQ (human)", "result": 31, "unit": "%"}, {"measurement": "kinase still bound, per cent of control", "setting": "DCLK1 (human)", "result": 29, "unit": "%"}, {"measurement": "kinase still bound, per cent of control", "setting": "NLK (human)", "result": 25, "unit": "%"}, {"measurement": "kinase still bound, per cent of control", "setting": "MYLK (human)", "result": 25, "unit": "%"}, {"measurement": "kinase still bound, per cent of control", "setting": "PKN1 (human)", "result": 27, "unit": "%"}, {"measurement": "kinase still bound, per cent of control", "setting": "PLK1 (human)", "result": 16, "unit": "%"}, {"measurement": "kinase still bound, per cent of control", "setting": "MAPK7 (human)", "result": 0.15, "unit": "%"}, {"measurement": "kinase still bound, per cent of control", "setting": "GAK (human)", "result": 33, "unit": "%"}, {"measurement": "kinase still bound, per cent of control", "setting": "DCLK2 (human)", "result": 24, "unit": "%"}]}]}
